The source of these data is PubChem BioAssay (NCI).

Some test systems named below: SK-MEL-5 melanoma; HCT-116 colon; NCI/ADR-RES ovarian; SW-620 colon; SR leukemia; OVCAR-5 ovarian; OVCAR-8 ovarian; NCI-H23 lung; TK-10 renal; K-562 leukemia.
Common to all, as to assay: NCI tumour cell line growth inhibition, 48 h

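Briefly, cells in 96-well plates were exposed to five compound concentrations for 48 h, and endpoints were estimated by linear interpolation. GI50 is the concentration that inhibits growth by half. TGI denotes the concentration required for complete inhibition of growth.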 Bounds are passed on as bounds.

As for `CCN1C(=O)N(c2ccccc2)C2NN=c3s/c(=C4\C(=O)N(C(C)C)c5ccccc54)c(=O)n3C21` (stereo not given), the GI50 with SK-MEL-5 melanoma is 1.04 µM; with HCT-116 colon it was 2.18 µM; with NCI/ADR-RES ovarian, 0.702 µM; with SW-620 colon it was 0.891 µM; in the assay with SR leukemia, 0.553 µM; in the assay with OVCAR-5 ovarian, 3.38 µM. Further, the GI50 in the assay with OVCAR-8 ovarian was 2.05 µM; with NCI-H23 lung, 1.47 µM; in the assay on TK-10 renal, 4.84 µM; in the assay with K-562 leukemia, 0.518 µM. For the same compound, the TGI in the assay on SK-MEL-5 melanoma was 15.5 µM; in the assay on HCT-116 colon, 8.24 µM; with NCI/ADR-RES ovarian it was 3.84 µM; in the assay on SW-620 colon, more than 100 µM; in the assay with SR leukemia it was more than 100 µM; in the assay with OVCAR-5 ovarian it was more than 100 µM. For the same compound, the TGI is more than 100 µM in the assay on OVCAR-8 ovarian, 28.2 µM with NCI-H23 lung, 49.5 µM with TK-10 renal and more than 100 µM in the assay on K-562 leukemia.
For `CSc1ccc(/C=C/c2ccnc3ccccc23)cc1`, the TGI was found to be 18.9 µM in the assay with SK-MEL-5 melanoma; 22.3 µM with HCT-116 colon; 29.5 µM in the assay on NCI/ADR-RES ovarian; 27 µM in the assay on SW-620 colon; 32.9 µM in the assay on SR leukemia; 35 µM in the assay on OVCAR-5 ovarian. In addition, the TGI in the assay on OVCAR-8 ovarian was found to be 28.8 µM; with NCI-H23 lung it was 28.4 µM; with TK-10 renal, 26.8 µM; in the assay with K-562 leukemia, 30.9 µM.
As to `CS(=O)(=O)CCNCc1ccc(-c2ccc3ncnc(Nc4ccc(OCc5ccccc5)c(Cl)c4)c3c2)o1`, the GI50 in the assay with SK-MEL-5 melanoma was 2.98 µM; in the assay on HCT-116 colon, 4.53 µM; in the assay with NCI/ADR-RES ovarian, 5.9 µM; in the assay on SW-620 colon it was 4.49 µM; in the assay on SR leukemia, 6.91 µM; in the assay on OVCAR-5 ovarian, 3.61 µM. Besides, the GI50 with OVCAR-8 ovarian is 8.1 µM; in the assay with NCI-H23 lung, 8.98 µM; with TK-10 renal it was 0.158 µM; in the assay with K-562 leukemia, 5.45 µM. Moreover, the TGI in the assay with SK-MEL-5 melanoma was 6.08 µM; with HCT-116 colon, 9.54 µM; in the assay with NCI/ADR-RES ovarian, more than 25 µM; in the assay with SW-620 colon, 8.98 µM; with SR leukemia it was 23.9 µM; in the assay with OVCAR-5 ovarian it was 18.8 µM. Moreover, the TGI in the assay with OVCAR-8 ovarian was more than 25 µM; in the assay on NCI-H23 lung it was more than 25 µM; in the assay with TK-10 renal it was more than 14.1 µM; in the assay with K-562 leukemia it was 14.4 µM.
In the case of `O=C(NCCCCCCCCNC(=O)c1cccc2ccccc12)c1cccc2ccccc12`, the TGI is more than 100 µM with SK-MEL-5 melanoma; more than 83.4 µM in the assay on HCT-116 colon; more than 100 µM in the assay with NCI/ADR-RES ovarian; more than 100 µM in the assay with SW-620 colon; more than 100 µM in the assay on SR leukemia; more than 100 µM in the assay with OVCAR-5 ovarian. Further, the TGI with OVCAR-8 ovarian was 79.5 µM; in the assay with NCI-H23 lung, more than 79.6 µM; in the assay with TK-10 renal, 43.3 µM; in the assay on K-562 leukemia, more than 100 µM.
For `CN(C[C@@H]1COCCO1)S(=O)(=O)Nc1ccc2ccc3ncc(-c4cnn(C)c4)cc3c(=O)c2c1`, the GI50 in the assay on SK-MEL-5 melanoma is 6.42 µM; in the assay on HCT-116 colon, 3.87 µM; in the assay on NCI/ADR-RES ovarian, 11.8 µM; in the assay on SW-620 colon, 4.74 µM; with SR leukemia, 3.05 µM; in the assay with OVCAR-5 ovarian, more than 81.2 µM. Also, the GI50 with OVCAR-8 ovarian was 5.04 µM; in the assay with NCI-H23 lung it was 1.77 µM; in the assay with TK-10 renal, 2.64 µM; in the assay with K-562 leukemia, 6.57 µM. The TGI in the assay with SK-MEL-5 melanoma, with HCT-116 colon, in the assay on NCI/ADR-RES ovarian, in the assay on SW-620 colon, with SR leukemia and in the assay on OVCAR-5 ovarian was more than 100 µM each time. The TGI with OVCAR-8 ovarian, in the assay on NCI-H23 lung, in the assay with TK-10 renal and in the assay with K-562 leukemia was more than 100 µM throughout.
On to `CCOC(=O)c1cc2c(n1Cc1ccccc1)-c1oncc1CC2`, for which the GI50 in the assay with SK-MEL-5 melanoma was 2.97 µM; in the assay with HCT-116 colon, 3.45 µM; in the assay on NCI/ADR-RES ovarian, 2.01 µM; with SW-620 colon, 3.48 µM; with SR leukemia, 2.56 µM; in the assay with OVCAR-5 ovarian, 16.2 µM. Also, the GI50 with OVCAR-8 ovarian is 7.19 µM; in the assay with NCI-H23 lung it was 6.37 µM; in the assay on TK-10 renal it was 14.4 µM; with K-562 leukemia it was 2.48 µM. In addition, the TGI with SK-MEL-5 melanoma was 12 µM; with HCT-116 colon, 13.7 µM; in the assay on NCI/ADR-RES ovarian, 6.3 µM; in the assay with SW-620 colon, more than 100 µM; with SR leukemia, 15.5 µM; with OVCAR-5 ovarian it was more than 100 µM. Moreover, the TGI with OVCAR-8 ovarian is 66.9 µM; in the assay with NCI-H23 lung, 67.1 µM; in the assay on TK-10 renal it was more than 100 µM; with K-562 leukemia, more than 100 µM.
For `CCc1nc(N)nc(N)c1-c1ccc(NCCc2ccccc2)c([N+](=O)[O-])c1`, the TGI was 10.1 µM in the assay with SK-MEL-5 melanoma; 36.7 µM in the assay with HCT-116 colon; 53.7 µM with NCI/ADR-RES ovarian; more than 79.4 µM in the assay with SW-620 colon; 24 µM with SR leukemia; more than 73.4 µM in the assay with OVCAR-5 ovarian. Further, the TGI with OVCAR-8 ovarian is 89 µM; in the assay on NCI-H23 lung, more than 54.1 µM; with TK-10 renal, more than 69.7 µM; in the assay on K-562 leukemia, more than 36.3 µM.
In the case of `CCCCCCCCCCCCOC1C(CNC(=O)C2OC3OC(C)(C)OC3C2NC(=O)CN2CCCCCC2)OC2OC(C)(C)OC21` (stereo not given), the GI50 in the assay on SK-MEL-5 melanoma is 1.85 µM; with HCT-116 colon, 4.06 µM; in the assay on NCI/ADR-RES ovarian, 4.14 µM; in the assay with SW-620 colon, 3.38 µM; in the assay on SR leukemia it was 2.44 µM; in the assay with OVCAR-5 ovarian, 6.44 µM. Besides, the GI50 with OVCAR-8 ovarian was 11 µM; in the assay on NCI-H23 lung, 10.9 µM; in the assay with TK-10 renal, 8.27 µM; in the assay on K-562 leukemia, 3.43 µM. For the same compound, the TGI is 3.41 µM in the assay on SK-MEL-5 melanoma; 12.8 µM in the assay with HCT-116 colon; 15.7 µM with NCI/ADR-RES ovarian; 11.1 µM in the assay on SW-620 colon; 4.91 µM in the assay on SR leukemia; 19.5 µM with OVCAR-5 ovarian. Besides, the TGI stood at 25.5 µM in the assay on OVCAR-8 ovarian, 24.8 µM in the assay on NCI-H23 lung, 22.5 µM in the assay with TK-10 renal and 10.9 µM in the assay with K-562 leukemia.
